Reference: US20230346779A1, “DOSAGE FORM COMPOSITIONS COMPRISING AN INHIBITOR OF BTK AND MUTANTS THEREOF” (Newave Pharmaceutical Inc., priority 2020, published 2023)

Legend:
[1] = Solubility of free base in buffers of varying pH; format: physicochemical
Experimental: The solubility of a typical API (i.e., Compound 2 as disclosed herein) in free base form was evaluated in buffers of varying pH.

[2] = Stability of HCl salt at different temperatures for 8 hours; format: physicochemical
Experimental: The stability of a Compound 2 HCl salt at different temperatures for 8 hours is shown below. The initial purity at TO is 96.5%. […] Similar observation was also made for several other compounds of the invention.

Compound | Ave. Conc. ([1]; 0.01N HCl) [mg/mL] | Ave. Conc. ([1]; Water) [mg/mL] | Ave. Conc. ([1]; pH 2.0) [mg/mL] | Ave. Conc. ([1]; pH 3.0) [mg/mL] | Ave. Conc. ([1]; pH 4.5) [mg/mL] | Ave. Conc. ([1]; pH 6.8) [mg/mL] | Purity (%) at 8 h ([2]; 50° C., 8 hours) [%] | Purity (%) at 8 h ([2]; 80° C., 8 hours) [%] | Purity (%) at 8 h ([2]; 100° C., 8 hours) [%] | stability assessment of HCl salt ([2]; different temperatures, 8 hours) | initial purity ([2]; stability study, at TO (start)) [%]
C=CC(=O)Nc1cc(Nc2nc(-c3ccnc(N4CCn5c(cc6c5CC(C)(C)C6)C4=O)c3CO)cn(C)c2=O)ccc1N1CCN(C2CCOCC2)C[C@@H]1C [Compound 2, N-(5-[[6-(2-[4,4-dimethyl-9-oxo-1,10-diazatricyclo[6.4.0.0^[2,6]]dodeca-2(6),7-dien-10-yl]-3-(hydroxymethyl)pyridin-4-yl)-4-methyl-3-oxopyrazin-2-yl]amino]-2-[(2S)-2-methyl-4-(oxan-4-yl)piperazin-1-yl]phenyl)prop-2-enamide] | 55.52 | 0.09 | 9.67 | 2.07 | 1.81 | 0.02 | – | – | – | – | –
C=CC(=O)Nc1cc(Nc2nc(-c3ccnc(N4CCn5c(cc6c5CC(C)(C)C6)C4=O)c3CO)cn(C)c2=O)ccc1N1CCN(C2CCOCC2)C[C@@H]1C.Cl [Compound-2 HCl, N-(5-[[6-(2-[4,4-dimethyl-9-oxo-1,10-diazatricyclo[6.4.0.0^[2,6]]dodeca-2(6),7-dien-10-yl]-3-(hydroxymethyl)pyridin-4-yl)-4-methyl-3-oxopyrazin-2-yl]amino]-2-[(2S)-2-methyl-4-(oxan-4-yl)piperazin-1-yl]phenyl)prop-2-enamide hydrochloride] | – | – | – | – | – | – | 95.7 | 90.1 | 84.7 | not sufficiently stable | 96.5
